In ChEMBL document CHEMBL5303711, “ECBD screening data for assay EOS300108” (2023):
Counter-ions that a name gives are not always drawn. The source made the active and inactive calls. How the calls were made is not given here. Residues, ends and D or L forms follow the SMILES beside them. *: point of attachment. Cbz = O=C(OCc1ccccc1)*

test: Cytotoxicity activity against human HepG2 cells assessed by CellTiter-Glo luminescent cell viability assay.; type: toxicity, cell-based; parameters: assay stage confirmatory assay, source tissue liver; details: HepG2 cells, read-out: IC50 relative

SMILES	CC50
O=C1CCc2c(Oc3ccc4c(c3)[C@@H]3[C@H](O4)[C@H]3c3nc4ccc(C(F)(F)F)cc4[nH]3)ccnc2N1 [LIFIRAFENIB]	0.5 µM (active)
C[C@]1(O)C[C@@H](c2nc(-c3ccc4ccc(-c5ccccc5)nc4c3)c3c(N)nccn32)C1 [LINSITINIB]	5.3 µM (active)
O=C(NC1CCN(CCCCC2(C(=O)NCC(F)(F)F)c3ccccc3-c3ccccc32)CC1)c1ccccc1-c1ccc(C(F)(F)F)cc1 [LOMITAPIDE]	1.4 µM (active)
CCNC(=O)c1noc(-c2cc(C(C)C)c(O)cc2O)c1-c1ccc(CN2CCOCC2)cc1 [LUMINESPIB]	< 0.1 µM (active)
O=c1cc(-c2ccc(O)c(O)c2)oc2cc(O)cc(O)c12 [LUTEOLIN]	9 µM (active)
O=C1NC(=O)C(c2cnc3ccccn23)=C1c1cn2c3c(cc(F)cc13)CN(C(=O)N1CCCCC1)CC2 [LY-2090314]	9.5 µM (active)
C[C@@H](Oc1ccc2[nH]nc(/C=C/c3cnn(CCO)c3)c2c1)c1c(Cl)cncc1Cl [LY-2874455]	0.7 µM (active)
CNc1ncc2cc(-c3cc(NC(=O)NCCC(C)(C)C)c(F)cc3C)c(C)nc2n1 [LY-3009120]	0.4 µM (active)
CNCCCC12CCC(c3ccccc31)c1ccccc12 [MAPROTILINE HYDROCHLORIDE]	4.7 µM (active)
Cc1ccc(NC(=O)c2ccc(CN3CCN(C)CC3)cc2)cc1Nc1nc(-c2cccnc2)cs1 [MASITINIB]	3.5 µM (active)
Cc1ccc(C(=O)Nc2ccc(Oc3cc4cnn(C)c4cc3-c3cn[nH]c3)c(F)c2)c(=O)n1-c1ccc(F)cc1 [MERESTINIB]	2.9 µM (active)
CN1C[C@H](CNC(=O)OCc2ccccc2)C[C@@H]2c3cccc4c3c(cn4C)C[C@H]21 [METERGOLINE]	6.3 µM (active)
CN(Cc1cnc2nc(N)nc(N)c2n1)c1ccc(C(=O)N[C@@H](CCC(=O)O)C(=O)O)cc1 [METHOTREXATE]	< 0.1 µM (active)
CN(C)c1ccc2nc3ccc(=[N+](C)C)cc-3sc2c1 [METHYLENE BLUE ANHYDROUS]	3 µM (active)
CN(C)c1ccc(C(O)(c2ccc(N(C)C)cc2)c2ccc(N(C)C)cc2)cc1 [METHYLROSANILINE]	2 µM (active)
CSc1ccc2c(c1)C(N1CCN(C)CC1)Cc1ccccc1S2 (centres undefined) [METITEPINE]	4.9 µM (active)
CC[C@H](C)C(=O)O[C@H]1CCC=C2C=C[C@H](C)[C@H](CC[C@@H]3C[C@@H](O)CC(=O)O3)[C@H]21 [MEVASTATIN]	33.3 µM (inactive)
CC(C)C[C@@H](C=O)NC(=O)[C@H](CC(C)C)NC(=O)[C@H](CC(C)C)NC(=O)OCc1ccccc1 [MG-132] (Cbz-Leu-Leu-Leu-aldehyde)	0.5 µM (active)
COCC(=O)O[C@]1(CCN(C)CCCc2nc3ccccc3[nH]2)CCc2cc(F)ccc2[C@@H]1C(C)C [MIBEFRADIL DIHYDROCHLORIDE]	3.1 µM (active)
Clc1ccc(COC(Cn2ccnc2)c2ccc(Cl)cc2Cl)c(Cl)c1 (centres undefined) [MICONAZOLE NITRATE]	12 µM (active)
CNC(=O)c1nn(C)c2c1C(C)(C)Cc1cnc(Nc3ccc(N4CCN(C)CC4)cc3)nc1-2 [MILCICLIB]	0.9 µM (active)
Nc1ncccc1-c1nc2ccc(-c3ccccc3)nc2n1-c1ccc(C2(N)CCC2)cc1 [MIRANSERTIB]	4.2 µM (active)

SMILES	CC50
O=C(NOC[C@H](O)CO)c1ccc(F)c(F)c1Nc1ccc(I)cc1F [MIRDAMETINIB]	< 0.1 µM (active)
O=C1c2c(O)ccc(O)c2C(=O)c2c(NCCNCCO)ccc(NCCNCCO)c21 [MITOXANTRONE]	0.8 µM (active)
CCS(=O)(=O)Nc1ccc(Oc2ccc(F)cc2F)c(-c2cn(C)c(=O)c3[nH]ccc23)c1 [MIVEBRESIB]	0.3 µM (active)
C[C@@H]1CN(c2cc(-c3n[nH]c4ccc(OC5(C)CC5)cc34)ncn2)C[C@H](C)O1 [MLi-2]	16.5 µM (active)
CCNC(=O)C[C@@H]1N=C(c2ccc(Cl)cc2)c2cc(OC)ccc2-n2c(C)nnc21 [MOLIBRESIB]	2.6 µM (active)
N#CCNC(=O)c1ccc(-c2ccnc(Nc3ccc(N4CCOCC4)cc3)n2)cc1 [MOMELOTINIB]	5.2 µM (active)
CCCN(CCC)C(=O)C1=Cc2ccc(-c3ccc(C(=O)N4CCCC4)cc3)cc2N=C(N)C1 [MOTOLIMOD]	11.3 µM (active)
FC(F)(F)c1ccc(/C=C/c2nc(COc3ccc(CCCCn4ccnn4)cc3)co2)cc1 [MUBRITINIB]	0.3 µM (active)
Cc1cc(C(=O)Nc2nc3cccc(Cl)c3n2[C@@H]2CCCCN(C(=O)/C=C/CN(C)C)C2)ccn1 [NAZARTINIB]	6.4 µM (active)
COc1ccc([C@@H](O)c2cc(-c3ncnc4cc(N5CCOCC5)ccc34)c(F)cc2Cl)nn1 [NEDISERTIB]	3.4 µM (active)
CCc1nn(CCCN2CCN(c3cccc(Cl)c3)CC2)c(=O)n1CCOc1ccccc1 [NEFAZODONE HYDROCHLORIDE]	14.4 µM (active)
CC(C)N1CCN(Cc2cnc(-c3cc(-c4cccc5[nH]ccc45)cc4[nH]ncc34)o2)CC1 [NEMIRALISIB]	4.4 µM (active)
CCOc1cc2ncc(C#N)c(Nc3ccc(OCc4ccccn4)c(Cl)c3)c2cc1NC(=O)/C=C/CN(C)C [NERATINIB]	9.9 µM (inactive)
CNc1cccc(NC(=O)N[C@@H]2N=C(c3ccccn3)c3ccccc3N(CC(=O)C(C)(C)C)C2=O)c1 [NETAZEPIDE]	18.4 µM (inactive)
CCCCN(Cc1ccc(C(=O)NO)cc1)C(=O)Nc1ccccc1 [NEXTURASTAT A]	6.9 µM (active)
O=C(Nc1ccc([N+](=O)[O-])cc1Cl)c1cc(Cl)ccc1O [NICLOSAMIDE]	0.7 µM (active)
CC[N+](CC)=c1ccc2nc3c(cc(N)c4ccccc43)oc-2c1 [NILE BLUE HYDROCHLORIDE]	2 µM (active)
COC(=O)C1=C(C)NC(C)=C(C(=O)OCC(C)C)C1c1ccccc1[N+](=O)[O-] (centres undefined) [NISOLDIPINE]	11.1 µM (active)
O=[N+]([O-])c1ccc(O)c2ncccc12 [NITROXOLINE]	12.4 µM (active)
CC(Cc1ccc(O)c(O)c1)C(C)Cc1ccc(O)c(O)c1 (centres undefined) [NORDIHYDROGUAIARETIC ACID]	10.3 µM (inactive)
O=C(O)c1ccc2cc(-c3ccc(O)c(C45CC6CC(CC(C6)C4)C5)c3)ccc2c1 [O-DEMETHYLATED ADAPALENE]	8.3 µM (active)
CC1(C)CC[C@]2(C(=O)O)CC[C@]3(C)C(=CC[C@@H]4[C@@]5(C)CCC(=O)C(C)(C)[C@@H]5CC[C@]43C)[C@@H]2C1 [OLEANONIC ACID]	8.4 µM (inactive)
COC(=O)C[C@](O)(CCCC(C)(C)O)C(=O)O[C@@H]1C(OC)=C[C@]23CCCN2CCc2cc4c(cc2[C@H]13)OCO4 [OMACETAXINE MEPESUCCINATE]	0.2 µM (active)

SMILES	CC50
COc1ncc(-c2ccc3nccc(-c4ccnnc4)c3c2)cc1NS(=O)(=O)c1ccc(F)cc1F [OMIPALISIB]	0.1 µM (active)
CO[C@H]1CC[C@H](N2C(=O)CNc3ncc(-c4ccc(C(C)(C)O)nc4)nc32)CC1 [ONATASERTIB]	6 µM (active)
CN1CCN(c2ccc(OC(F)(F)F)c(Nc3ncc4c(n3)-c3c(c(C(N)=O)nn3CCO)CC4)c2)CC1 [ONVANSERTIB]	11.9 µM (active)
COC[C@H](NC(=O)c1cnc(C)s1)C(=O)N[C@@H](COC)C(=O)N[C@@H](Cc1ccccc1)C(=O)[C@@]1(C)CO1 [OPROZOMIB]	0.1 µM (active)
CC(C)Oc1ccc(-c2nc(-c3cccc4c3CC[C@@H]4NCCO)no2)cc1C#N [OZANIMOD]	3.4 µM (active)
C=CCc1cccc(/C=N/NC(=O)CN2CCN(Cc3ccccc3)CC2)c1O [PAC-1]	6.3 µM (active)
COc1ccc(Cc2nccc3cc(OC)c(OC)cc23)cc1OC [PAPAVERINE]	12.8 µM (active)
Fc1ccc([C@@H]2CCNC[C@H]2COc2ccc3c(c2)OCO3)cc1 [PAROXETINE HYDROCHLORIDE]	4.1 µM (active)
O=[N+]([O-])c1ccc(-c2nc(-c3ccncc3)c(-c3ccc(F)cc3)[nH]2)cc1 [PD-169316]	50 µM (inactive)
CCOc1cc2ncc(C#N)c(Nc3ccc(F)c(Cl)c3)c2cc1NC(=O)/C=C/CN(C)C [PELITINIB]	1.8 µM (active)
N=C(N)c1ccc(OCCCCCOc2ccc(C(=N)N)cc2)cc1 [PENTAMIDINE ISETHIONATE]	3.4 µM (active)
OCCN1CCN(CCCN2c3ccccc3Sc3ccc(Cl)cc32)CC1 [PERPHENAZINE]	3.4 µM (active)
FC(F)(F)c1ccc(CNc2ccc(Cc3c[nH]c4ncc(Cl)cc34)cn2)cn1 [PEXIDARTINIB]	5.2 µM (active)
Cc1ccc(-n2nc(C(C)(C)C)cc2NC(=O)NCc2cc(F)ccc2Oc2ccc3c(cnn3CCO)c2)cc1 [PEXMETINIB]	2.4 µM (active)
Cc1nc(Nc2n[nH]c3c2CN(C(=O)N[C@H](CN(C)C)c2ccccc2)C3(C)C)c2sccc2n1 [PF-03758309]	0.4 µM (active)
COc1ccc(-c2cc3c(C)nc(N)nc3n([C@H]3CC[C@H](OCCO)CC3)c2=O)cn1 [PF-04691502]	0.6 µM (active)
CC(C)CC(=O)Nc1[nH]nc2c1CN(C(=O)C1CCN(C)CC1)C2(C)C [PHA-793887]	1 µM (active)
CS(=O)(=O)N1CCN(Cc2cc3nc(-c4cccc5[nH]ncc45)nc(N4CCOCC4)c3s2)CC1 [PICTILISIB]	0.9 µM (active)
O=C(NC[C@H](O)CO)c1ccncc1Nc1ccc(I)cc1F [PIMASERTIB]	< 0.1 µM (active)
O=c1[nH]c2ccccc2n1C1CCN(CCCC(c2ccc(F)cc2)c2ccc(F)cc2)CC1 [PIMOZIDE]	4.6 µM (active)
O=C(c1c(F)ccc(NS(=O)(=O)N2CC[C@@H](F)C2)c1F)c1c[nH]c2ncc(-c3cnc(C4CC4)nc3)cc12 [PLIXORAFENIB]	5.4 µM (active)
Cc1ccc(C(=O)Nc2ccc(CN3CCN(C)CC3)c(C(F)(F)F)c2)cc1C#Cc1cnc2cccnn12 [PONATINIB]	0.3 µM (active)
CC[C@@H]([C@H](C)O)n1ncn(-c2ccc(N3CCN(c4ccc(OC[C@@H]5CO[C@@](Cn6cncn6)(c6ccc(F)cc6F)C5)cc4)CC3)cc2)c1=O [POSACONAZOLE]	19.6 µM (inactive)
